# Article PMC3207901, “Nodulin 41, a novel late nodulin of common bean with peptidase activity” (BMC Plant Biology, 2011)
# Where a SMILES comes first, the peptide text is derived from it. [ ]: non-standard residue; d: D form. The star is where a group is joined. Sta = CC(C)C[C@H](N)[C@@H](O)CC(=O)O; Isovaleryl = CC(C)CC(=O)*
# Target: T1, PvNod41 (nodulin 41) (Phaseolus vulgaris, UniProt G1FTR5)
# T1 construct: gene Nod41; native mature enzyme purified from 21 dpi root nodules; 437-residue precursor, 22-residue putative signal peptide and 50-residue prosegment removed; single chain, 41 kDa on SDS-PAGE
# T1 sequence (G1FTR5 73-437): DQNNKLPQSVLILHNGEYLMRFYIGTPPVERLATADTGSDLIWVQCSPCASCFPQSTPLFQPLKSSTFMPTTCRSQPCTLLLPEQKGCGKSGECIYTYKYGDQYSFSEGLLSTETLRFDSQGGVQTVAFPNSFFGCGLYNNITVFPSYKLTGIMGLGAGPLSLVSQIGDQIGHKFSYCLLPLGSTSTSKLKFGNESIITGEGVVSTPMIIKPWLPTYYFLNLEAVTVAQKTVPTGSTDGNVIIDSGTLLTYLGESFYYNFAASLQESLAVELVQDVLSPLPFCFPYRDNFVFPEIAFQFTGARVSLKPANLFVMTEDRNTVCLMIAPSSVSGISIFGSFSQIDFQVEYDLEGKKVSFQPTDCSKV
# Assay: casein degradation, SDS-PAGE densitometry
# Assay type: biochemical
# Details: 2 µM, casein substrate, 50 mM sodium citrate, pH 4.5, 37°C, 15 min preincubation
# Source text: casein degradation, SDS-PAGE densitometry on PvNod41 (nodulin 41)
structure (smiles),measurement,value
CC(C)CC(=O)N[C@H](C(=O)N[C@H](C(=O)N[C@@H](CC(C)C)[C@@H](O)CC(=O)N[C@@H](C)C(=O)N[C@@H](CC(C)C)[C@@H](O)CC(=O)O)C(C)C)C(C)C [Pepstatin A] (Isovaleryl-VV[Sta]A[Sta]-OH),% of residual activity (n = 3),55 (± 5) %
